Laboratory results as given in the supplement of paper PMC10307832.

Experiments:
Assay in all cases: relative viability (nuclei count vs DMSO), 5 days (fraction); higher = more cells survive
[1] = test system: LU99A
Summary of the method: (§1)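 Lung cancer cell lines were pin-tool dosed in 1536-well plates on the day after seeding, with either a lone drug or a fixed anchor-drug dose plus five library-drug doses (not always all listed) in √10 steps. Nuclei were counted on 4× images after 5 days. Relative viability is the ratio of treated-well to vehicle-well nuclei counts, with each value a median of duplicate plates.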

[2] = test system: NCI-H2170
Summary of the method: as §1

[3] = test system: NCI-H650
Summary of the method: as §1

[4] = test system: NCI-H1395
Summary of the method: as §1

[5] = test system: SW 900
Summary of the method: as §1

[6] = test system: LXF-289
Summary of the method: as §1

[7] = test system: EMC-BAC-2
Summary of the method: as §1

[8] = test system: HARA
Summary of the method: as §1

[9] = test system: HCC-78
Summary of the method: as §1

[10] = test system: BEN
Summary of the method: as §1

[11] = test system: 201T
Summary of the method: as §1

[12] = test system: NCI-H2087
Summary of the method: as §1

[13] = test system: LOU-NH91
Summary of the method: as §1

[14] = test system: H3255
Summary of the method: as §1

[15] = test system: LC-2-ad
Summary of the method: as §1

[16] = test system: NCI-H2126
Summary of the method: as §1

[17] = test system: RERF-LC-KJ
Summary of the method: as §1

[18] = test system: HOP-62
Summary of the method: as §1

[19] = test system: NCI-H1993
Summary of the method: as §1

CN1CCN(CCOc2cc(OC3CCOCC3)c3c(Nc4c(Cl)ccc5c4OCO5)ncnc3c2)CC1 [Saracatinib] + NC(=O)Nc1cc(-c2cccc(F)c2)sc1C(=O)N[C@H]1CCCNC1 [AZD7762] (partner 0.2 µM)
relative viability ([1]; first compound 0.02 µM): 0.374
relative viability ([1]; first compound 0.2 µM): 0.279
relative viability ([1]; first compound 0.6325 µM): 0.31
relative viability ([1]; first compound 2 µM): 0.325
relative viability ([2]; first compound 0.02 µM): 0.867
relative viability ([2]; first compound 0.2 µM): 0.803
relative viability ([2]; first compound 0.6325 µM): 0.872
relative viability ([2]; first compound 2 µM): 0.506
relative viability ([3]; first compound 0.02 µM): 0.984
relative viability ([3]; first compound 0.2 µM): 1.04
relative viability ([3]; first compound 0.6325 µM): 0.98
relative viability ([3]; first compound 2 µM): 0.997
relative viability ([4]; first compound 0.02 µM): 0.404
relative viability ([4]; first compound 0.2 µM): 0.397
relative viability ([4]; first compound 0.6325 µM): 0.388
relative viability ([4]; first compound 2 µM): 0.382
relative viability ([5]; first compound 0.02 µM): 0.696
relative viability ([5]; first compound 0.2 µM): 0.545
relative viability ([5]; first compound 0.6325 µM): 0.533
relative viability ([5]; first compound 2 µM): 0.492
relative viability ([6]; first compound 0.02 µM): 1.12
relative viability ([6]; first compound 0.2 µM): 1.09
relative viability ([6]; first compound 0.6325 µM): 1.12
relative viability ([6]; first compound 2 µM): 1.1
relative viability ([7]; first compound 0.02 µM): 1.12
relative viability ([7]; first compound 0.2 µM): 1.09
relative viability ([7]; first compound 0.6325 µM): 1.09
relative viability ([7]; first compound 2 µM): 0.946
relative viability ([8]; first compound 0.02 µM): 0.413
relative viability ([8]; first compound 0.2 µM): 0.345
relative viability ([8]; first compound 0.6325 µM): 0.247
relative viability ([8]; first compound 2 µM): 0.355
relative viability ([9]; first compound 0.02 µM): 0.583
relative viability ([9]; first compound 0.6325 µM): 0.774
relative viability ([9]; first compound 2 µM): 0.421
relative viability ([10]; first compound 0.02 µM): 0.906
relative viability ([10]; first compound 0.2 µM): 0.511
relative viability ([10]; first compound 0.6325 µM): 0.847
relative viability ([10]; first compound 2 µM): 0.713
relative viability ([11]; first compound 0.02 µM): 0.554
relative viability ([11]; first compound 0.2 µM): 0.446
relative viability ([11]; first compound 0.6325 µM): 0.623
relative viability ([11]; first compound 2 µM): 0.625
relative viability ([12]; first compound 0.02 µM): 1.33
relative viability ([12]; first compound 0.2 µM): 1.13
relative viability ([12]; first compound 0.6325 µM): 1.76
relative viability ([12]; first compound 2 µM): 1.31
relative viability ([13]; first compound 0.02 µM): 0.785
relative viability ([13]; first compound 0.2 µM): 0.722
relative viability ([13]; first compound 0.6325 µM): 0.745
relative viability ([13]; first compound 2 µM): 0.598
relative viability ([14]; first compound 0.02 µM): 0.959
relative viability ([14]; first compound 0.2 µM): 0.917
relative viability ([14]; first compound 0.6325 µM): 0.966
relative viability ([14]; first compound 2 µM): 0.346
relative viability ([15]; first compound 0.02 µM): 0.841
relative viability ([15]; first compound 0.2 µM): 0.778
relative viability ([15]; first compound 0.6325 µM): 0.835
relative viability ([15]; first compound 2 µM): 0.726
relative viability ([16]; first compound 0.02 µM): 1
relative viability ([16]; first compound 0.2 µM): 0.883
relative viability ([16]; first compound 0.6325 µM): 1.01
relative viability ([16]; first compound 2 µM): 0.993
relative viability ([17]; first compound 0.02 µM): 1.13
relative viability ([17]; first compound 0.2 µM): 0.971
relative viability ([17]; first compound 2 µM): 1
relative viability ([18]; first compound 0.02 µM): 0.945
relative viability ([18]; first compound 0.2 µM): 0.614
relative viability ([18]; first compound 0.6325 µM): 0.707
relative viability ([18]; first compound 2 µM): 0.905
relative viability ([19]; first compound 0.02 µM): 0.836
relative viability ([19]; first compound 0.2 µM): 0.719
relative viability ([19]; first compound 0.6325 µM): 0.694
relative viability ([19]; first compound 2 µM): 0.581

CCNC(=O)c1noc(-c2cc(C(C)C)c(O)cc2O)c1-c1ccc(CN2CCOCC2)cc1 [Luminespib] + NC(=O)Nc1cc(-c2cccc(F)c2)sc1C(=O)N[C@H]1CCCNC1 [AZD7762] (partner 0.2 µM)
relative viability ([1]; first compound 0.002 µM): 0.378
relative viability ([1]; first compound 0.006325 µM): 0.347
relative viability ([1]; first compound 0.02 µM): 0.214
relative viability ([1]; first compound 0.06325 µM): 0.0724
relative viability ([1]; first compound 0.2 µM): 0.0654
relative viability ([2]; first compound 0.002 µM): 0.868
relative viability ([2]; first compound 0.006325 µM): 0.851
relative viability ([2]; first compound 0.06325 µM): 0.118
relative viability ([2]; first compound 0.2 µM): 0.104
relative viability ([3]; first compound 0.002 µM): 0.93
relative viability ([3]; first compound 0.006325 µM): 0.958
relative viability ([3]; first compound 0.02 µM): 0.587
relative viability ([3]; first compound 0.06325 µM): 0.139
relative viability ([3]; first compound 0.2 µM): 0.0919
relative viability ([4]; first compound 0.002 µM): 0.399
relative viability ([4]; first compound 0.006325 µM): 0.372
relative viability ([4]; first compound 0.02 µM): 0.374
relative viability ([4]; first compound 0.06325 µM): 0.343
relative viability ([4]; first compound 0.2 µM): 0.384
relative viability ([5]; first compound 0.002 µM): 0.667
relative viability ([5]; first compound 0.006325 µM): 0.752
relative viability ([5]; first compound 0.02 µM): 0.396
relative viability ([5]; first compound 0.06325 µM): 0.129
relative viability ([5]; first compound 0.2 µM): 0.13
relative viability ([6]; first compound 0.002 µM): 1.07
relative viability ([6]; first compound 0.006325 µM): 1.1
relative viability ([6]; first compound 0.02 µM): 1.12
relative viability ([6]; first compound 0.06325 µM): 0.151
relative viability ([6]; first compound 0.2 µM): 0.0914
relative viability ([7]; first compound 0.002 µM): 1.12
relative viability ([7]; first compound 0.006325 µM): 0.655
relative viability ([7]; first compound 0.02 µM): 0.689
relative viability ([7]; first compound 0.06325 µM): 0.769
relative viability ([7]; first compound 0.2 µM): 0.226
relative viability ([8]; first compound 0.002 µM): 0.304
relative viability ([8]; first compound 0.006325 µM): 0.291
relative viability ([8]; first compound 0.02 µM): 0.511
relative viability ([8]; first compound 0.06325 µM): 0.18
relative viability ([8]; first compound 0.2 µM): 0.125
relative viability ([9]; first compound 0.002 µM): 0.562
relative viability ([9]; first compound 0.006325 µM): 0.591
relative viability ([9]; first compound 0.02 µM): 0.536
relative viability ([9]; first compound 0.06325 µM): 0.497
relative viability ([9]; first compound 0.2 µM): 0.333
relative viability ([10]; first compound 0.002 µM): 0.687
relative viability ([10]; first compound 0.006325 µM): 0.669
relative viability ([10]; first compound 0.02 µM): 0.405
relative viability ([10]; first compound 0.06325 µM): 0.516
relative viability ([10]; first compound 0.2 µM): 0.272
relative viability ([11]; first compound 0.002 µM): 0.621
relative viability ([11]; first compound 0.006325 µM): 0.555
relative viability ([11]; first compound 0.02 µM): 0.525
relative viability ([11]; first compound 0.06325 µM): 0.516
relative viability ([11]; first compound 0.2 µM): 0.318
relative viability ([12]; first compound 0.002 µM): 1.34
relative viability ([12]; first compound 0.006325 µM): 1.1
relative viability ([12]; first compound 0.02 µM): 1.45
relative viability ([12]; first compound 0.06325 µM): 0.19
relative viability ([12]; first compound 0.2 µM): 0.117
relative viability ([13]; first compound 0.002 µM): 0.797
relative viability ([13]; first compound 0.006325 µM): 0.799
relative viability ([13]; first compound 0.02 µM): 0.66
relative viability ([13]; first compound 0.06325 µM): 0.322
relative viability ([13]; first compound 0.2 µM): 0.318
relative viability ([14]; first compound 0.002 µM): 0.857
relative viability ([14]; first compound 0.006325 µM): 0.794
relative viability ([14]; first compound 0.02 µM): 0.808
relative viability ([14]; first compound 0.06325 µM): 0.774
relative viability ([14]; first compound 0.2 µM): 0.31
relative viability ([15]; first compound 0.002 µM): 0.802
relative viability ([15]; first compound 0.006325 µM): 0.854
relative viability ([15]; first compound 0.02 µM): 0.833
relative viability ([15]; first compound 0.06325 µM): 0.146
relative viability ([15]; first compound 0.2 µM): 0.16
relative viability ([16]; first compound 0.002 µM): 0.984
relative viability ([16]; first compound 0.006325 µM): 1.01
relative viability ([16]; first compound 0.06325 µM): 0.846
relative viability ([16]; first compound 0.2 µM): 0.296
relative viability ([17]; first compound 0.002 µM): 0.936
relative viability ([17]; first compound 0.006325 µM): 0.998
relative viability ([17]; first compound 0.02 µM): 0.683
relative viability ([17]; first compound 0.06325 µM): 0.533
relative viability ([17]; first compound 0.2 µM): 0.178
relative viability ([18]; first compound 0.002 µM): 0.437
relative viability ([18]; first compound 0.006325 µM): 0.463
relative viability ([18]; first compound 0.02 µM): 0.306
relative viability ([18]; first compound 0.06325 µM): 0.129
relative viability ([18]; first compound 0.2 µM): 0.109
relative viability ([19]; first compound 0.002 µM): 0.759
relative viability ([19]; first compound 0.006325 µM): 0.772
relative viability ([19]; first compound 0.02 µM): 0.513
relative viability ([19]; first compound 0.06325 µM): 0.247
relative viability ([19]; first compound 0.2 µM): 0.237
